From patent US7026359B1, “Utilization of a highly fluorinated oligomeric alkane in ophthalmology” (Bausch & Lomb Incorporated, priority 1999, dated 2006)

Legend:
Assay type in all cases: physicochemical
[1] = Critical solubility temperature in hexane (CST), qualitative measure of lipophilicity / tissue penetration
Source text: The tissue penetration capacity can be described qualitatively by the critical solubility temperature in hexane (abbreviation: CST). This qualitative measure of lipophilicity is at the same time a measure of the capacity for tissue penetration.

[2] = Density
[3] = Refractive index
[4] = Surface tension
[5] = Viscosity
[6] = Sterilization in an autoclave (stability); details: 121° C. in an autoclave
Procedure: The highly fluorinated oligomer (C6F13CHCH2)3 is dissolved in fluorocarbons and purified via an Al2O3 chromatographic column. After removal of the solvent the last traces of volatile contaminants are removed in a vacuum. The highly fluorinated trimer according to nuclear spin resonance, infrared and mass spectroscopic tests, a uniform and highly pure substance with a molecular weight of 1055. Charging with an active agent takes place under mild conditions via a solvent that is not miscible with the trimer after distribution to saturation concentration. β-Carotene as active agent changes the color of the oligomer slightly. […] The nuclear magnetic data of this substance are as follows: […]

(C6F13CHCH2)3 [Example 1]
Critical solubility temperature in n-hexane, CST [1]: 35 °C | Density [2]: 1.661 g/mL | Refractive index n^D20 [3]: 1.3351 | Surface tension [4]: 19.5 mN/m | Viscosity [5]: 220 mPa·sec | Stability on sterilization [6]: without the physical or chemical properties of the substances being changed
